Source: patent US8889729B2, “Compositions for treating amyloid associated diseases” (Tel Aviv University Future Technology Development L.P., priority 2004, dated 2014)

Columns and labels:
[1] = target: T1, Aβ 1-42 (Homo sapiens, UniProt P05067); test: Thioflavin T fluorescence assay of Aβ 1-42 fibrillization (Example 2); format: biochemical; conditions: for inhibition of β-amyloid polypeptide fibril formation: 50 μM compound, 5 μM Aβ 1-42, 24 hours at 37° C.; for concentration dependence of inhibition of fibril formation: Aβ1-42, fixed incubation time of 24 hours; for IC50: Aβ1-42 fibrillization, 24 hours, calculated by the curve equation, read-out: apparent IC50
T1 construct: Aβ 1-40 and Aβ 1-42, >98% pure) were purchased from Bachem; purchased Bachem (Bubendorf, Switzerland); host or cells: chemical synthesis
Protocol: (§1) Aβ solutions: Synthetic lyophilized β-amyloid polypeptides (Aβ 1-40 and Aβ 1-42, >98% pure) were purchased from Bachem (Bubendorf, Switzerland). A 100 μM Aβ stock solution was prepared by dissolving Aβ1-40 or Aβ1-42 in dimethylsulfoxide (DMSO) and sonicating the resulting solution during 1 minute to avoid pre-aggregation. Aβ solutions were prepared by immediate dilution with 10 mM phosphate-buffered saline (100 mM NaCl, 0.5 mM EDTA, pH 7.4) to a final concentration of 10 μM (containing 10% (v/v) DMSO).
(§2) Indole derivatives stock solutions were prepared by dissolving an indole derivative in DMSO, so as to achieve a concentration of 20 mM and then diluting the solution with 10 mM PBS buffer (100 mM NaCl, 0.5 mM EDTA, pH 7.4) to a final concentration of 100 μM (containing 0.5% (v/v) DMSO).
(§3) Thioflavin T fluorescence assay: Fibrillization of A[…] 1-42 polypeptide was monitored using a Thioflavin T (ThT) dye binding assay. A 10 μM Aβ solution (either Aβ1-40 or Aβ1-42) was prepared as described above and was immediately mixed with the indole derivative stock solutions (100 μM), so as to achieve a final concentration of 5 μM for Aβ and various concentrations of the indole derivative. For each measurement, ThT was added to a 0.1 ml sample, to give a final concentration of 0.3 μM ThT and 0.4 μM Aβ. The samples were incubated at 37° C. Fluorescence measurements, made after addition of the ThT solution to each sample at 37° C., were carried out using a Jobin Yvon FluoroMax-3 spectrometer (excitation 450 nm, 2.5 nm slit; emission 480 nm, 5 nm slit, integration time of 1 second). Background was subtracted from each sample. Each experiment was repeated in quadruplicate.
Inhibition of amyloid formation: The level of amyloid formation was detected using the above described Thioflavin T (ThT) dye binding assay. Fluorescence (relative intensity, measured in units of percent) of the ThT bound Aβ 1-42 remaining following 24 hours at 37° C., in the absence, and in the presence of 50 μM indole or indole derivative, was measured. Each measurement was recorded immediately after the fluorescence intensity reached a maximum value. The results obtained with representative indole derivatives, each representing a mean of four independent measurements along with an associated error bar representing a standard error, are graphically presented in FIG. 4.
Concentration Dependence of Indole Derivatives inhibition activity: To examine the inhibition efficiency of the indole derivatives, the concentration dependence of inhibition of fibril formation was studied. The fibrillization of Aβ1-42, with and without an indole derivative was measured using the ThT fluorescence assay described above at a fixed incubation time of 24 hours.

[2] = target: T2, Aβ1-40 (Homo sapiens, UniProt P05067); test: Kinetics of Aβ1-40 fibrillogenesis inhibition, ThT fluorescence assay; format: biochemical; conditions: for effect on nucleation phase (lag phase) compared with control / effect on slope of growth curve (polymerization phase): 5 μM, 25 μM and 50 μM tested
T2 construct: Synthetic lyophilized β-amyloid polypeptides (Aβ 1-40 and Aβ 1-42, >98% pure); purchased Bachem (Bubendorf, Switzerland); host or cells: chemical synthesis
Protocol: as §1, §2, §3
Kinetics Studies of Aβ1-40 Fibrillogenesis Inhibition: Aβ1-40, which has a slower fibrillogenesis rate [see, Jarrett et al. (1993) Biochemistry 32, 4693-4697] was used in these studies, in order to obtain better temporal resolution, assuming that a slower rate would allow more significant inhibition and a better understanding of the effect. 3-Hydroxyindole (denoted as 3HI), 4-hydroxyindole (denoted as 4HI) and indole-3-carbinol (denoted herein as I3C) were each added at concentrations of 5 μM, 25 μM, and 50 μM to a solution containing 5 μM of Aβ1-40 (prepared as described above) and the kinetics of Aβ1-40 fibrillogenesis inhibition was measured using the ThT fluorescence assay.

[3] = target: T2, Aβ1-40; test: TEM ultrastructural analysis of Aβ1-40 samples from kinetic studies
Protocol: Transmission Electron microscopy (TEM): A 10 μl sample of the ThT fluorescence assay was placed on a 400 mesh copper grid covered by carbon-stabilized Formvar film (SPI Supplies, West Chester, Pa.). After 1.5 minutes, excess fluid was removed and the grids were negatively stained for 2 minutes with 10 μl of 2% uranyl acetate solution. Excess fluid was removed and the samples were viewed using a JEOL 1200EX electron microscope operating at 80 kV. Ultrastructural Analysis of amyloid fibril formation: The effect of the indole derivatives on the ultrastructural properties of the assembled Aβ was first evaluated by TEM measurements. Thus, TEM analysis was performed with samples of Aβ1-40 obtained from the kinetic studies described above after incubation for 14 days.

[4] = target: T2, Aβ1-40; test: AFM structural analysis of Aβ1-40 samples from kinetic studies; conditions: 50 μM compound, once control samples reached the polymerization phase
Protocol: Atomic force microscopy (AFM): For each experiment, a 60 μl sample of was taken for AFM measurement at three different time points correlating to the amyloidogenic kinetic curve, as detailed hereinafter. The sample was centrifuged for 1.5 minutes at 13,000 rpm and 40 μl of the supernatant was removed. The remaining 20 μl droplet of the solution was re-suspended and deposited onto freshly cleaved mica for 1.5 minutes. The substrate was washed with 160 μl of double-distilled H2O to reduce background and to eliminate salts and buffer contaminants. The mica samples were then dried at room temperature. At least four regions of the mica surface were examined to ensure that similar structures existed throughout the sample. AFM images were obtained using a Veeco NanoScope IV MultiMode AFM (Digital Instruments, Santa Barbara, USA) in tapping mode. Measurements were performed at a resonance frequency of about 321.4 kHz.
Additional structural analyses were performed using AFM measurements, performed with Aβ1-40 samples taken from the kinetic studies once the control samples reached the different fibrillogenesis phase.

[5] = tested on: PC12 cells; test: Aβ1-40 cytotoxicity on PC12 cells, MTT assay; format: cell-based; conditions: for inhibitory effect on Aβ1-40 cytotoxicity: both assays (T=0 and after 7 days incubation); for elevation of viability rate of PC12 cells compared with control: 5 μM Aβ1-40, MTT after 24 hours
Protocol: Cell culture: PC12 pheochromocytoma cell line, a cultured benign tumor of the sympathetic nervous system, was routinely grown in Dulbecco's Modified Eagle Medium (DMEM) supplemented with 8% (v/v) fetal calf serum, 8% (v/v) horse serum, 100 U/ml penicillin, 100 U/ml streptomycin, and 2 mM L-glutamine (Biological industries, Israel). The cells were maintained at 37° C. in a humidified atmosphere containing 5% CO2. Cell cytotoxicity assay: PC-12 cells (3×10^5 cells/ml) were cultured in 96-well microplates (100 μl/well) and were incubated overnight at 37° C. The wells were then washed once with serum free-DMEM, so as to exclude the effect of the serum. To each well 100 μl of 5 μM Aβ1-40 (prepared from a stock solution of 0.5 mM in 10 mM NaOH) and an indole derivative at various concentrations were added. Each determination was made in quadruplicate. Following incubation for 24 hours at 37° C., cell viability was evaluated using the MTT assay (as described in Hansen et al. (1989) J. Immunol. Methods 119, 203-210). The effect of the indole derivatives on the formation of cytotoxic amyloid assemblies was determined by measuring the toxicity of the formed Aβ on pheochromocytoma cell line cultures (PC12) in the presence and absence of the indole derivatives. […] Cell viability was determined after 24 hours using the MTT assay. Cells incubated with only 5 μM Aβ1-40 served as the control.

[6] = target: T3, Aβ 1-40 polypeptide (Homo sapiens, UniProt P05067); test: Thioflavin T fluorescence assay of Aβ 1-40 fibrillization (Example 1); format: biochemical; conditions: 10 μM compound
T3 construct: Recombinant β-amyloid (Aβ 1-40, >98% pure) polypeptide; purchased rPeptide (Athens Ga., USA)
Protocol: Fibrillization of Aβ 1-40 polypeptide was monitored using a Thioflavin T (ThT) dye binding assay. […] Fluorescence measurements, made after addition of the ThT solution to each sample at 37° C., were carried out using a Jobin Yvon FluoroMax-3 spectrometer (excitation 450 nm, 2.5 nm slit; emission 480 nm, 5 nm slit, integration time of 1 second). Background was subtracted from each sample. The level of amyloid formation was detected using the above described Thioflavin T (ThT) dye binding assay.

[7] = target: T3, Aβ 1-40 polypeptide; test: Transmission electron microscopy of ThT assay samples (Example 1); conditions: 10 μM compound, sample at about 192 hours
Protocol: Transmission Electron Microscopy (TEM) Measurements: 10 μl samples from the ThT fluorescence assay were placed on 400-mesh copper grids (SPI supplies, West Chester Pa.) covered by carbon stabilized Formvar film. After 1 minute, excess fluid was removed, and the grids were negatively stained with 2% uranyl acetate in water for another two minutes. Microstructural features of the samples were viewed using a JEOL 1200EX electron microscope operating at 80 kV.
In order to obtain insight into the mechanism of inhibiting formation of β-amyloidpolypeptide type of amyloid fibrils, representative samples taken from the ThT fluorescence assay measurements described above after attainment of the plateau (at about 192 hours, FIG. 2), in the absence or presence of indole-3-carbinol, were viewed using electron microscopy.

[8] = 50 μM compound, 5 μM Aβ1-40, endpoint of experiment, read-out: inhibition level at final equilibrium phase
[9] = 50 μM compound, 14 days incubation

T1 sequence (P05067 672-713 limits assumed): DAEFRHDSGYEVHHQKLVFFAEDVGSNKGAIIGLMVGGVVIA
T2 sequence (P05067 672-711 limits assumed): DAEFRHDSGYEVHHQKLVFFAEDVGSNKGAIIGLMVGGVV
T3 sequence (P05067 672-711 limits assumed): as above

## Oc1cc2ccccc2[nH]1 [2-hydroxyindole]
[1]
  inhibition of β-amyloid polypeptide fibril formation: significantly reduced inhibition

## Oc1c[nH]c2ccccc12 [3-hydroxyindole]
[1]
  inhibition of β-amyloid polypeptide fibril formation: significantly inhibited
  concentration dependence of inhibition of fibril formation: dose-dependent inhibition pattern
  IC50: ~100 µM
[2]; 5 μM Aβ1-40
  effect on nucleation phase (lag phase) compared with control: no effect on the nucleation phase
  effect on slope of growth curve (polymerization phase): dose-dependent effect
[2]; 25 μM compound, 5 μM Aβ1-40, endpoint of experiment, read-out: inhibition level at final equilibrium phase
  inhibition at 25 µM: ~40%
[2]; [8]
  inhibition at 50 µM: ~60%
[3]; [9]
  fibril ultrastructure by TEM: significant number of amorphous aggregates showing a congested form
[4]
  amyloid fibril formation by AFM: small aggregates that interacted with the amyloid fibrils
[5]
  inhibitory effect on Aβ1-40 cytotoxicity: no anti-cyclotoxic effect
[5]; only at T=0 (solution added immediately), 5 μM Aβ1-40
  improvement of PC12 survival rate compared with control: about 25%

## Oc1cccc2[nH]ccc12 [4-hydroxyindole]
[1]
  inhibition of β-amyloid polypeptide fibril formation: significantly inhibited
  concentration dependence of inhibition of fibril formation: dose-dependent inhibition pattern
  IC50: ~85 µM
[2]; 5 μM compound, 5 μM Aβ1-40
  effect on nucleation phase (lag phase): less significant
  slope of growth curve (polymerization phase): the most sharp
[2]; 5 μM compound, 5 μM Aβ1-40, endpoint of experiment, read-out: inhibition level at final equilibrium phase
  inhibition at 5 µM: ~60%
[2]; 25 μM compound, 5 μM Aβ1-40
  effect on nucleation phase (lag phase): significantly longer nucleation phase
[2]; 25 μM compound, 5 μM Aβ1-40, endpoint of experiment
  inhibition level at final equilibrium phase: almost complete
[2]; 50 μM compound, 5 μM Aβ1-40
  effect on nucleation phase (lag phase): significantly longer nucleation phase
[2]; 50 μM compound, 5 μM Aβ1-40, endpoint of experiment
  inhibition level at final equilibrium phase: almost complete
[2]; all the tested concentrations
  inhibition level at final equilibrium phase, comparison among compounds: highest inhibition level
[3]; 5 μM or more of compound
  fibril ultrastructure by TEM: no amyloid fibrils
[3]; 25 μM compound, 14 days incubation
  fibril ultrastructure by TEM: devoid of fibrils and contained only a minor amount of small fibrils
[4]
  amyloid fibril formation by AFM: no fibrils
[5]; 0.5 μM to 50 μM, 5 μM Aβ1-40, solution incubated 7 days
  protective effect, concentration dependence: dose-dependent
[5]; 5 μM Aβ1-40, solution incubated 7 days
  minimum concentration required for significant inhibition: 2.5 µM
[5]; 25 μM compound
  elevation of viability rate of PC12 cells compared with control: about 25%
[5]; 50 μM compound
  elevation of viability rate of PC12 cells compared with control: about 25%
[5]; 50 μM compound, 5 μM Aβ1-40, solution incubated 7 days
  toxic effect of Aβ1-40: completely blocked
[5]
  inhibitory effect on Aβ1-40 cytotoxicity: most significant inhibitory effect

## Oc1ccc2[nH]ccc2c1 [5-hydroxyindole]
[1]
  inhibition of β-amyloid polypeptide fibril formation: significantly reduced inhibition

## OCc1c[nH]c2ccccc12 [indole-3-carbinol]
[6]; 5 μM Aβ 1-40
  level of fluorescence at the plateau compared to non-inhibited Aβ 1-40: about a third
[6]; 5 μM Aβ 1-40, 37° C., without compound about 200 hours
  time to attainment of fluorescence plateau: about 300 hours
[6]; 5 μM Aβ 1-40, remaining duration of assay
  levels of ThT fluorescence following about 100 hours: significantly lower levels of fluorescence
[6]; 5 μM Aβ 1-40, control lag-phase about 100 hours
  lag-time of fibrillization: significantly extended
[7]
  fibril morphology by electron microscopy: significantly shorter and less dense fiber type material
[1]
  inhibition of β-amyloid polypeptide fibril formation: significantly inhibited
  concentration dependence of inhibition of fibril formation: only at high concentrations and showed no dose-dependency
  IC50: ~200 µM
[2]; 5 μM Aβ1-40
  effect on nucleation phase (lag phase) compared with control: no effect on the nucleation phase
  effect on slope of growth curve (polymerization phase): effect on the slope of the growth curve only at 50 μM
[2]; [8]
  inhibition at 50 µM: ~50%
[3]; [9]
  fibril ultrastructure by TEM: smaller amounts of amyloid fibril aggregates
[4]
  amyloid fibril formation by AFM: small amounts of amyloid fibrils in the form of long wires
[5]
  inhibitory effect on Aβ1-40 cytotoxicity: No significant inhibition of cytotoxicity
